According to patent publication US20080269251A1, “Substituted Pyrazinone Derivatives as Alpha2C-Adrenoreceptor Antagonists” (priority 2005, published 2008):

molecular target: T1, human adrenergic-α2A receptor (Homo sapiens, UniProt P08913); experiment: Radioligand binding experiment for hα2A-adrenergic receptor ([3H]raulwolscine); settings: [3H]raulwolscine 1 nM, 60 minutes at 25° C.
T1 construct: expressed in transfected cells; host or cells: CHO cells, stably transfected; membrane preparation
T1 sequence (P08913 1-465): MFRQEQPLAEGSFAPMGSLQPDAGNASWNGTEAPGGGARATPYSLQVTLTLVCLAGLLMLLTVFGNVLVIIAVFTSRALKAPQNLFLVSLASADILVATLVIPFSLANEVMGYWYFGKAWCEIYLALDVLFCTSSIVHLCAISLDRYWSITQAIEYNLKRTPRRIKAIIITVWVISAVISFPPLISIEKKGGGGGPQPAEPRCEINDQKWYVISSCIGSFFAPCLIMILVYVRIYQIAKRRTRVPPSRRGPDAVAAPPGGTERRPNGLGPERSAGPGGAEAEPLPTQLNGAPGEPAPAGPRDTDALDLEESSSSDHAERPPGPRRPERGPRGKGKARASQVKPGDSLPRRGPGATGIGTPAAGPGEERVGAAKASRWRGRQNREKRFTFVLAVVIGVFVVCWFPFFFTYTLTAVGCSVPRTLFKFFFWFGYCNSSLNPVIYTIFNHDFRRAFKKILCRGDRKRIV
Method: (§1) The interaction of the compounds of Formula (I) with α2C-adrenoceptor receptors was assessed in in vitro radioligand binding experiments. In general, a low concentration of a radioligand with a high binding affinity for a particular receptor or transporter is incubated with a sample of a tissue preparation enriched in a particular receptor or transporter or with a preparation of cells expressing cloned human receptors in a buffered medium. During the incubation, the radioligand binds to the receptor or transporter. When equilibrium of binding is reached, the receptor bound radioactivity is separated from the non-bound radioactivity, and the receptor- or transporter-bound activity is counted. The interaction of the test compounds with the receptor is assessed in competition binding experiments. Various concentrations of the test compound are added to the incubation mixture containing the receptor- or transporter preparation and the radioligand. The test compound in proportion to its binding affinity and its concentration inhibits binding of the radioligand. The radioligand used for […] receptor binding was [^3H]-raulwolscine.
(§2) CHO cells, stabile transfected with human adrenergic-α2A, -α2B or α2C receptor cDNA, were cultured in Dulbecco's Modified Eagle's Medium (DMEM)/Nutrient mixture Ham's F12 (ratio 1:1)(Gibco, Gent-Belgium) supplemented with 10% heat inactivated fetal calf serum (Life Technologies, Merelbeke-Belgium) and antibiotics (100 IU/ml penicillin G, 100 μg/ml streptomycin sulphate, 110 μg/ml pyruvic acid and 100 μg/ml L-glutamine). One day before collection, cells were induced with 5 mM sodiumbutyrate. Upon 80-90% of confluence, cells were scraped in phosphate buffered saline without Ca^2+ and Mg^2+ and collected by centrifugation at 1500×g for 10 minutes. The cells were homogenised in Tris-HCl 50 mM using an Ultraturrax homogenizer and centrifuged for 10 minutes at 23,500×g. The pellet was washed once by resuspension and rehomogenization and the final pellet was resuspended in Tris-HCl, divided in 1 ml aliquots and stored at −70° C.
(§3) Membranes were thawed and re-homogenized in incubation buffer (glycylglycine 25 mM, pH 8.0). In a total volume of 500 μl, 2-10 μg protein was incubated with [^3H]raulwolscine (NET-722) (New England Nuclear, USA) (1 nM final concentration) with or without competitor for 60 minutes at 25° C. followed by rapid filtration over GF/B filter using a Filtermate196 harvester (Packard, Meriden, Conn.). Filters were rinsed extensively with ice-cold rinsing buffer (Tris-HCl 50 mM pH 7.4). Filter-bound radioactivity was determined by scintillation counting in a Topcount (Packard, Meriden, Conn.) and results were expressed as counts per minute (cpm). Non-specific binding was determined in the presence of 1 μM oxymetazoline for hα2A- and hα2B receptors and 1 μM spiroxatrine for hα2C receptors.
(§4) Data from assays in the presence of compound were calculated as a percentage of total binding measured in the absence of test compound. Inhibition curves, plotting percent of total binding versus the log value of the concentration of the test compound, were automatically generated, and sigmoidal inhibition curves were fitted using non-linear regression. The pIC50 values of test compounds were derived from individual curves.

Row | Structure (SMILES) | h-α2A pIC50
1 | O=C(NCCCc1ccccc1)NCc1ccc(-n2ccnc(NC3CCN(Cc4ccc5ccccc5c4)CC3)c2=O)cc1 [1-51] | 6.4
2 | CN(CCF)Cc1ccc(-n2ccnc(NC3CCN(Cc4ccc5ccccc5c4)CC3)c2=O)cc1 [1-14] | 6.9
3 | O=C(NCc1ccc(-n2ccnc(NC3CCN(Cc4ccc5ccccc5c4)CC3)c2=O)cc1)Nc1ccccc1 [1-52] | 6.3
4 | O=C(O)C(F)(F)F.O=C1c2ccccc2C(=O)N1CCCn1ccnc(NCCN2CCN(Cc3ccc4ccccc4c3)CC2)c1=O [9-02] | 6.6

same assay, conditions: [3H]raulwolscine 1 nM, 60 minutes at 25° C.; read-out: h-α2A pIC50 (converted)

Row | Structure (SMILES) | IC50
5 | NCc1ccc(Cn2ccnc(NC3CCN(Cc4ccc5ccccc5c4)CC3)c2=O)cc1 [1-02] | 50.1 nM
6 | O=C(CNCCCn1ccnc(NC2CCN(Cc3ccc4ccccc4c3)CC2)c1=O)c1coc2ccccc12 [1-103] | 631 nM
7 | O=C(Cc1ccsc1)NCc1ccc(-n2ccnc(NC3CCN(Cc4ccc5ccccc5c4)CC3)c2=O)cc1 [1-95] | 398 nM
8 | O=c1c(NC2CCN(Cc3ccc4ccccc4c3)CC2)nccn1CCC1OCCO1 [4-04] | 501 nM
9 | O=C1CCCN1Cc1ccc(-n2ccnc(NC3CCN(Cc4ccc5ccccc5c4)CC3)c2=O)cc1 [2-01] | 251 nM
10 | CCCNC(=O)Cc1ccc(-n2ccnc(NC3CCN(Cc4ccc5ccccc5c4)CC3)c2=O)cc1 [1-11] | 501 nM
11 | O=c1c(NC2CCN(Cc3ccc4ccccc4c3)CC2)nccn1-c1ccc(CNCc2ccco2)cc1 [1-82] | 158 nM
12 | CNCCCn1ccnc(NC2CCN(Cc3ccc4ccccc4c3)CC2)c1=O [1-04] | 251 nM
13 | O=c1c(NC2CCN(Cc3ccc4ccccc4n3)CC2)nccn1CCOc1ccccc1 [9-15] | 631 nM
14 | O=C(Cn1ccnc(NC2CCN(Cc3ccc4ccccc4c3)CC2)c1=O)NCc1ccc(F)cc1 [1-66] | 316 nM
15 | COc1ccc(Cn2c(-c3cccc(CN4CCC(F)CC4)c3)c(Cl)nc(NC3CCN(Cc4ccc5ccccc5c4)CC3)c2=O)cc1 [8-12] | 100 nM
16 | O=C(Cn1ccnc(NC2CCN(Cc3ccc4ccccc4c3)CC2)c1=O)N1CCC(Cc2ccccc2)CC1 [2-15] | 251 nM

molecular target: T2, human adrenergic-α2C receptor (Homo sapiens, UniProt P18825); experiment: Radioligand binding experiment for hα2C-adrenoceptor ([3H]raulwolscine); settings: [3H]raulwolscine 1 nM, 60 minutes at 25° C.
T2 construct: expressed in transfected cells; host or cells: CHO cells, stably transfected; membrane preparation
T2 sequence (P18825 1-462): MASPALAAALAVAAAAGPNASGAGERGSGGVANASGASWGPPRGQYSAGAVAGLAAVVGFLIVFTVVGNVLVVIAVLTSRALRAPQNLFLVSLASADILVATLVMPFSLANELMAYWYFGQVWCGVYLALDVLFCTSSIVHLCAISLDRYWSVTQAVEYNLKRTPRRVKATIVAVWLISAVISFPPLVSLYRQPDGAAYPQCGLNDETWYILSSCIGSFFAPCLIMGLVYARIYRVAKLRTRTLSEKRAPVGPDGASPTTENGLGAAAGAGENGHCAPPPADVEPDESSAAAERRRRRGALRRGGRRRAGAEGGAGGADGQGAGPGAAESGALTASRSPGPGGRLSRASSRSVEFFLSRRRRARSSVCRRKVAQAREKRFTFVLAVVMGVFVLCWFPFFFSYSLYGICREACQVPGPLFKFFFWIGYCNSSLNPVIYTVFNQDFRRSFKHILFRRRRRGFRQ
Method: as §1, §2, §3, §4

Row | Structure (SMILES) | h-α2C pIC50
17 | O=C(NCCCc1ccccc1)NCc1ccc(-n2ccnc(NC3CCN(Cc4ccc5ccccc5c4)CC3)c2=O)cc1 [1-51] | 7.1
18 | CN(CCF)Cc1ccc(-n2ccnc(NC3CCN(Cc4ccc5ccccc5c4)CC3)c2=O)cc1 [1-14] | 8.1
19 | O=C(NCc1ccc(-n2ccnc(NC3CCN(Cc4ccc5ccccc5c4)CC3)c2=O)cc1)Nc1ccccc1 [1-52] | 7.2
20 | O=C(O)C(F)(F)F.O=C1c2ccccc2C(=O)N1CCCn1ccnc(NCCN2CCN(Cc3ccc4ccccc4c3)CC2)c1=O [9-02] | 7.5

same assay, conditions: [3H]raulwolscine 1 nM, 60 minutes at 25° C.; read-out: h-α2C pIC50 (converted)

Row | Structure (SMILES) | IC50
21 | NCc1ccc(Cn2ccnc(NC3CCN(Cc4ccc5ccccc5c4)CC3)c2=O)cc1 [1-02] | 12.6 nM
22 | O=C(CNCCCn1ccnc(NC2CCN(Cc3ccc4ccccc4c3)CC2)c1=O)c1coc2ccccc12 [1-103] | 31.6 nM
23 | O=C(Cc1ccsc1)NCc1ccc(-n2ccnc(NC3CCN(Cc4ccc5ccccc5c4)CC3)c2=O)cc1 [1-95] | 20 nM
24 | O=c1c(NC2CCN(Cc3ccc4ccccc4c3)CC2)nccn1CCC1OCCO1 [4-04] | 79.4 nM
25 | O=C1CCCN1Cc1ccc(-n2ccnc(NC3CCN(Cc4ccc5ccccc5c4)CC3)c2=O)cc1 [2-01] | 31.6 nM
26 | CCCNC(=O)Cc1ccc(-n2ccnc(NC3CCN(Cc4ccc5ccccc5c4)CC3)c2=O)cc1 [1-11] | 20 nM
27 | O=c1c(NC2CCN(Cc3ccc4ccccc4c3)CC2)nccn1-c1ccc(CNCc2ccco2)cc1 [1-82] | 12.6 nM
28 | CNCCCn1ccnc(NC2CCN(Cc3ccc4ccccc4c3)CC2)c1=O [1-04] | 25.1 nM
29 | O=c1c(NC2CCN(Cc3ccc4ccccc4n3)CC2)nccn1CCOc1ccccc1 [9-15] | 158 nM
30 | O=C(Cn1ccnc(NC2CCN(Cc3ccc4ccccc4c3)CC2)c1=O)NCc1ccc(F)cc1 [1-66] | 12.6 nM
31 | COc1ccc(Cn2c(-c3cccc(CN4CCC(F)CC4)c3)c(Cl)nc(NC3CCN(Cc4ccc5ccccc5c4)CC3)c2=O)cc1 [8-12] | 79.4 nM
32 | O=C(Cn1ccnc(NC2CCN(Cc3ccc4ccccc4c3)CC2)c1=O)N1CCC(Cc2ccccc2)CC1 [2-15] | 31.6 nM

molecular target: T3, 5HT-transporter (Homo sapiens, UniProt P31645); experiment: Binding experiment for the 5HT-transporter ([3H]paroxetine, human platelet membranes); settings: [3H]paroxetine 0.5 nM, 60 min at 25° C.
T3 construct: Human platelet membranes (Oceanix Biosciences Corporation, Hanover, Md., USA) were thawed; tissue Oceanix Biosciences Corporation, Hanover, Md., USA; host or cells: human platelet membranes
T3 sequence (P31645 whole entry): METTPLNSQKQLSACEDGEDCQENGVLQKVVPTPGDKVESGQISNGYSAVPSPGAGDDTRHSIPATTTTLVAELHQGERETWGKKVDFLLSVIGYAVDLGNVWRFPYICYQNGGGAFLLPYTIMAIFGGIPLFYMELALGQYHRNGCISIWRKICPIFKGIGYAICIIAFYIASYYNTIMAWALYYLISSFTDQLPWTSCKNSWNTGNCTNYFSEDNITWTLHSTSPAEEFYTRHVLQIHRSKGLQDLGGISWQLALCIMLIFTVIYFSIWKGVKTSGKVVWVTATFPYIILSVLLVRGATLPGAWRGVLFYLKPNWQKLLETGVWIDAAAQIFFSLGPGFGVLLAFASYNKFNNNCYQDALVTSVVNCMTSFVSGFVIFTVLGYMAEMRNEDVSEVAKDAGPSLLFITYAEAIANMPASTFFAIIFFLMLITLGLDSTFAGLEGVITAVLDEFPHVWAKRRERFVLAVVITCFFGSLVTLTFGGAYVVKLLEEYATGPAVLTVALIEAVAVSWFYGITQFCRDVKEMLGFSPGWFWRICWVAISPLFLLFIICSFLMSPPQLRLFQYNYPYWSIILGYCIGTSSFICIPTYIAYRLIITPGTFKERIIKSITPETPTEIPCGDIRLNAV
Method: as §1
Human platelet membranes (Oceanix Biosciences Corporation, Hanover, Md., USA) were thawed, diluted in buffer (Tris-HCl 50 mM, 120 mM NaCl and 5 mM KCl) and quickly (max 3 s) homogenised with an Ultraturrax homogenizer. […] Incubation was stopped by rapid filtration of the incubation mixture over GF/B filters, pre-wetted with 0.1% polyethyleneamine, using a Filtermate196 harvester (Packard, Meriden, Conn.). Filters were rinsed extensively with ice-cold buffer and radioactivity on the filters was counted in a Topcount liquid scintillation counter (Packard, Meriden, Conn.). Data were expressed as cpm. Imipramine (at 1 μM final concentration) was used to determine the non-specific binding.
as §4

Row | Structure (SMILES) | h-5HTT pIC50
33 | O=C(NCCCc1ccccc1)NCc1ccc(-n2ccnc(NC3CCN(Cc4ccc5ccccc5c4)CC3)c2=O)cc1 [1-51] | 7.8
34 | CN(CCF)Cc1ccc(-n2ccnc(NC3CCN(Cc4ccc5ccccc5c4)CC3)c2=O)cc1 [1-14] | 7.8
35 | O=C(NCc1ccc(-n2ccnc(NC3CCN(Cc4ccc5ccccc5c4)CC3)c2=O)cc1)Nc1ccccc1 [1-52] | 8.1
36 | O=C(O)C(F)(F)F.O=C1c2ccccc2C(=O)N1CCCn1ccnc(NCCN2CCN(Cc3ccc4ccccc4c3)CC2)c1=O [9-02] | 7.3

same assay, conditions: [3H]paroxetine 0.5 nM, 60 min at 25° C., read-out: h-5HTT pIC50 (converted)

Row | Structure (SMILES) | IC50
37 | NCc1ccc(Cn2ccnc(NC3CCN(Cc4ccc5ccccc5c4)CC3)c2=O)cc1 [1-02] | 63.1 nM
38 | O=C(CNCCCn1ccnc(NC2CCN(Cc3ccc4ccccc4c3)CC2)c1=O)c1coc2ccccc12 [1-103] | 158 nM
39 | O=C(Cc1ccsc1)NCc1ccc(-n2ccnc(NC3CCN(Cc4ccc5ccccc5c4)CC3)c2=O)cc1 [1-95] | 6.31 nM
40 | O=c1c(NC2CCN(Cc3ccc4ccccc4c3)CC2)nccn1CCC1OCCO1 [4-04] | 158 nM
41 | O=C1CCCN1Cc1ccc(-n2ccnc(NC3CCN(Cc4ccc5ccccc5c4)CC3)c2=O)cc1 [2-01] | 20 nM
42 | CCCNC(=O)Cc1ccc(-n2ccnc(NC3CCN(Cc4ccc5ccccc5c4)CC3)c2=O)cc1 [1-11] | 20 nM
43 | O=c1c(NC2CCN(Cc3ccc4ccccc4c3)CC2)nccn1-c1ccc(CNCc2ccco2)cc1 [1-82] | 5.01 nM
44 | CNCCCn1ccnc(NC2CCN(Cc3ccc4ccccc4c3)CC2)c1=O [1-04] | 251 nM
45 | O=c1c(NC2CCN(Cc3ccc4ccccc4n3)CC2)nccn1CCOc1ccccc1 [9-15] | 631 nM
46 | O=C(Cn1ccnc(NC2CCN(Cc3ccc4ccccc4c3)CC2)c1=O)NCc1ccc(F)cc1 [1-66] | 63.1 nM
47 | COc1ccc(Cn2c(-c3cccc(CN4CCC(F)CC4)c3)c(Cl)nc(NC3CCN(Cc4ccc5ccccc5c4)CC3)c2=O)cc1 [8-12] | 126 nM
48 | O=C(Cn1ccnc(NC2CCN(Cc3ccc4ccccc4c3)CC2)c1=O)N1CCC(Cc2ccccc2)CC1 [2-15] | 200 nM
